# In ChEMBL document CHEMBL3301361, “Experimental in vitro DMPK and physicochemical data on a set of publicly disclosed compounds”:
# Residues, ends and D or L forms follow the SMILES beside them.
# Experiments:
# in vitro [1] = settings: human, liver microsomes
# in vitro [2] = settings: hepatocytes
# physchem [3] = settings: octan-1-ol/water
# in vitro [4] = settings: human, plasma
# physchem [5] = settings: pH 7.4 buffer
Structure (SMILES),microsomal CLint (in vitro [1]),hepatocyte CLint (in vitro [2]),"logD (physchem [3]; pH 7.4, LogD7.4)",fraction unbound at 5 h (in vitro [4]; PPB),logD (physchem [3]; pH 7.4),fraction unbound at 5 h (in vitro [4]),solubility thermodynamic (physchem [5])
O=C(NCCCCCCNCCc1ccc(O)c2nc(O)sc12)Nc1ccccc1,11 µL/min/mg,98 µL/min/1e6 cells,,,,,
CCC(NC(=O)Nc1cc(Cl)ccc1Cl)(C(F)(F)F)C(F)(F)F,7.41 µL/min/mg,22.9 µL/min/1e6 cells,,,,,
CC(NC(=O)c1cc(O)nc2ccccc12)c1ccccc1 (stereo not drawn),,5.25 µL/min/1e6 cells,,,2.2,0.36,
O=C(NS(=O)(=O)c1ccccc1Cl)c1ccc[nH]1,< 3 µL/min/mg,3.31 µL/min/1e6 cells,,,,,
O=c1cc(-c2cccnc2)[nH]c2cc(Cc3ccccc3)ccc12,,50 µL/min/1e6 cells,3.46,0.0051,,,1.7 µM
O=c1cc(-c2cccnc2)[nH]c2cc(C(O)c3ccccc3)ccc12 (stereo not drawn),,46 µL/min/1e6 cells,,0.0268,,,288 µM
C[C@@H]1CN(Cc2cc(Cl)ccc2OCC(=O)O)CCN1S(=O)(=O)c1ccccc1,,7.48 µL/min/1e6 cells,,0.0051,,,
C[C@H]1CN(Cc2cc(Cl)ccc2CCC(=O)O)CCN1C(=O)Cc1ccccc1,< 3 µL/min/mg,< 3 µL/min/1e6 cells,,,,,
CC(C)S(=O)(=O)c1ccc(-c2cnc(N)c(C(=O)Nc3ccccc3)n2)cc1,10 µL/min/mg,20.9 µL/min/1e6 cells,,,,,
Cc1cc(Nc2nc(N[C@@H](C)c3ccc(F)cn3)c(C#N)cc2Cl)n[nH]1,,6.17 µL/min/1e6 cells,,0.0358,,,
O=c1[nH]c2c(O)ccc([C@@H](O)CNCCCSCCNCCc3ccccc3Cl)c2s1,11 µL/min/mg,12 µL/min/1e6 cells,,,,,
COc1cccc(CNc2nc(NC(C)C)nc3ccsc23)c1OC,,> 150 µL/min/1e6 cells,,,,0.0027,
C[C@@](C(=O)O[C@H]1C[N+]2(CCCc3ccncc3)CCC1CC2)(c1ccccc1)N1CCCCC1,,82 µL/min/1e6 cells,,,,0.483,
Cc1ccc(S(=O)(=O)Nc2c(C(=O)N[C@@H](C)C(C)(C)C)c(C)nn2C2CCOC2)cc1 (stereo partly drawn),,< 3 µL/min/1e6 cells,0.78,0.0736,,,
NC1(c2ccc(-c3nc4ccccc4cc3-c3ccccc3)cc2)CCC1,,148 µL/min/1e6 cells,,,,,288 µM
CC(=O)Nc1ccc2ccn(-c3cc(NC4COC4)n4ncc(C#N)c4n3)c2c1,,21.9 µL/min/1e6 cells,2.24,0.124,,,
CC(=O)Nc1ccc2c(c1)c(-c1cc(NC3CC3)n3ncc(C#N)c3n1)cn2CCCO,,12.3 µL/min/1e6 cells,2.48,0.0119,,,
CO[C@H]1CC[C@]2(CC1)Cc1ccc(-c3cc(Cl)cc(C#N)c3)cc1C21N=C(C)C(N)=N1 (stereo partly drawn),,12.6 µL/min/1e6 cells,3.8,0.0209,,,
COC(=O)C1=C(C)NC2=C(C(=O)CC(C)(C)C2)C1c1ccc(-c2ccc(C(F)(F)F)cc2)cc1 (stereo not drawn),9.12 µL/min/mg,12.3 µL/min/1e6 cells,,,,,
C=CC(=O)Nc1ccc2ncnc(Nc3cccc(C)c3)c2c1,,> 150 µL/min/1e6 cells,3.7,,,,16.6 µM
"CCCCCCCC(=O)N[C@@H](C)C(=O)N[C@H](C(=O)N[C@@H](CCN)C(=O)N[C@H]1CCNC(=O)[C@H]([C@@H](C)O)NC(=O)[C@H](CCN)NC(=O)[C@H](CCN)NC(=O)[C@H](CC(C)C)NC(=O)[C@@H](Cc2ccccc2)NC(=O)[C@H](CCN)NC1=O)[C@@H](C)O (HELM PEPTIDE1{[CCCCCCCC(=O)[*:2]].A.T.[Dab].[Dab].[Dab].[dF].L.[Dab].[Dab].T}$PEPTIDE1,PEPTIDE1,5:R3-11:R2$$$V2.0)",,< 3 µL/min/1e6 cells,,0.107,,,
"CCCCCCCC(=O)N[C@@H](CCN)C(=O)N[C@@H](C)C(=O)N[C@@H](CCN)C(=O)N[C@H]1CCNC(=O)[C@H]([C@@H](C)O)NC(=O)[C@H](CCN)NC(=O)[C@H](CCN)NC(=O)[C@H](CC(C)C)NC(=O)[C@@H](Cc2ccccc2)NC(=O)[C@H](CCN)NC1=O (HELM PEPTIDE1{[CCCCCCCC(=O)[*:2]].[Dab].A.[Dab].[Dab].[Dab].[dF].L.[Dab].[Dab].T}$PEPTIDE1,PEPTIDE1,5:R3-11:R2$$$V2.0)",,< 3 µL/min/1e6 cells,,0.0768,,,
"CCCCCCCC(=O)N[C@@H](CCN)C(=O)N[C@H](C(=O)N[C@@H](CCN)C(=O)N[C@H]1CCNC(=O)[C@H](C)NC(=O)[C@H](CCN)NC(=O)[C@H](CCN)NC(=O)[C@H](CC(C)C)NC(=O)[C@@H](Cc2ccccc2)NC(=O)[C@H](CCN)NC1=O)[C@@H](C)O (HELM PEPTIDE1{[CCCCCCCC(=O)[*:2]].[Dab].T.[Dab].[Dab].[Dab].[dF].L.[Dab].[Dab].A}$PEPTIDE1,PEPTIDE1,5:R3-11:R2$$$V2.0)",,< 3 µL/min/1e6 cells,,0.0581,,,
C[C@@]1(C(=O)Nc2ccc(F)nc2)CCCN1c1nc(Nc2cc(C3CC3)n[nH]2)c2cccn2n1 [BMS-754807],,70.8 µL/min/1e6 cells,3.16,0.0209,,,
"CC(=O)N[C@@H](CCN)C(=O)N[C@H](C(=O)N[C@@H](CCN)C(=O)N[C@H]1CCNC(=O)[C@H]([C@@H](C)O)NC(=O)[C@H](CCN)NC(=O)[C@H](CCN)NC(=O)[C@H](CC(C)C)NC(=O)[C@@H](Cc2ccccc2)NC(=O)[C@H](CCN)NC1=O)[C@@H](C)O [DEACYL POLYMYXIN B] (HELM PEPTIDE1{[ac].[Dab].T.[Dab].[Dab].[Dab].[dF].L.[Dab].[Dab].T}$PEPTIDE1,PEPTIDE1,5:R3-11:R2$$$V2.0)",,< 3 µL/min/1e6 cells,,0.355,,,
N#CCNC(=O)c1ccc(-c2ccnc(Nc3ccc(N4CCOCC4)cc3)n2)cc1 [MOMELOTINIB],,5.13 µL/min/1e6 cells,2.37,0.103,,,
CC(=O)[C@@]1(O)CC[C@H]2[C@@H]3CCC4=CC(=O)CCC4=C3[C@@H](c3ccc(N(C)C)cc3)C[C@@]21C [ULIPRISTAL],,> 150 µL/min/1e6 cells,,,,0.0049,

# Second part, the compound after the results:
microsomal CLint (in vitro [1]),hepatocyte CLint (in vitro [2]),"logD (physchem [3]; pH 7.4, LogD7.4)",fraction unbound at 5 h (in vitro [4]; PPB),logD (physchem [3]; pH 7.4),fraction unbound at 5 h (in vitro [4]),solubility thermodynamic (physchem [5]),Structure (SMILES)
,72.4 µL/min/1e6 cells,2.55,0.089,,,,COc1ccc2ncc(C#N)c(CCN3CCC(NCc4cc5c(cn4)OCS5)CC3)c2c1
,31.6 µL/min/1e6 cells,2.94,0.0818,,,195 µM,Cc1ccc(CO)cc1N(C)c1ccnc(Nc2cc(N3CCOCC3)cc(N3CCOCC3)c2)n1
,35.5 µL/min/1e6 cells,0.68,0.166,,,,COc1cc2c(ccc(=O)n2CCN2CCC(NCc3cc4c(cn3)OCCO4)CC2)cn1
< 3 µL/min/mg,34 µL/min/1e6 cells,,,,,,Cc1c(Sc2ccc(Cl)cc2)c2cc(F)ccc2n1CC(=O)O
< 3 µL/min/mg,< 3 µL/min/1e6 cells,,,,,,Cc1cccc(C[C@@H](C(=O)O)N2CCC(CN3CCC(Oc4ccc(Cl)c(Cl)c4)CC3)CC2)c1
< 3 µL/min/mg,< 3 µL/min/1e6 cells,,,,,,Cc1cc(F)ccc1OC1CCN(CC2CCN([C@@H](Cc3ccc(F)cc3)C(=O)O)CC2)CC1
< 3 µL/min/mg,< 3 µL/min/1e6 cells,,,,,,O=C(O)Cc1ccccc1N1CCC(CN2CCC(Oc3ccc(Cl)c(Cl)c3)CC2)CC1
,< 3 µL/min/1e6 cells,1.12,0.0099,,,,Cc1cn([C@H]2CCCN([C@@H](CC(C)(C)C)c3ccc(C(=O)O)c(Oc4cccc(Br)c4)c3)C2)c(=O)[nH]c1=O
,36.3 µL/min/1e6 cells,1.68,0.0119,,,,CCC(CC)C[C@H](c1ccc(C(=O)O)c(Oc2cccc(Cl)c2)c1)N1CCC[C@H](n2cc(C)c(=O)[nH]c2=O)C1
,52.5 µL/min/1e6 cells,1.99,0.0099,,,,CCCC(C)(C)C[C@H](c1ccc(C(=O)O)c(Oc2cccc(Cl)c2)c1)N1CCC[C@H](n2cc(C)c(=O)[nH]c2=O)C1
,19.1 µL/min/1e6 cells,-0.25,0.107,,,,Cc1cn([C@H]2CCCN([C@H](CC3CCOCC3)c3ccc(C(=O)O)c(Oc4cccc(Cl)c4)c3)C2)c(=O)[nH]c1=O
,89.1 µL/min/1e6 cells,2.12,0.0139,,,,Cc1cn([C@H]2CCCN(S(=O)(=O)c3ccc(O)c(Oc4ccc(Cl)cc4)c3)C2)c(=O)[nH]c1=O
,38 µL/min/1e6 cells,2.3,0.0139,,,,Cc1cn([C@H]2CCCN(S(=O)(=O)c3ccc(O)c(Oc4cccc(Br)c4)c3)C2)c(=O)[nH]c1=O
,74.1 µL/min/1e6 cells,,0.0119,,,,Cc1cn([C@H]2CCCN(S(=O)(=O)c3ccc(O)c(Oc4cc(F)cc(Cl)c4)c3)C2)c(=O)[nH]c1=O
6.31 µL/min/mg,63.1 µL/min/1e6 cells,,,,,,C[C@@H]1CN(c2ccc(F)cc2C(F)(F)F)CCN1S(=O)(=O)c1ccc(C(N)=O)cc1Cl
,17 µL/min/1e6 cells,1.82,0.253,,,,CN[C@@H](C)C(=O)N[C@H]1CN(C(=O)CC(C)C)CC[C@H]2CC[C@@H](C(=O)NC(c3ccccc3)c3ccccc3)N2C1=O [XEVINAPANT]
